# Assay results taken from patent publication US4585877A, “Process for preparing 1,8-diethyl-1,3,4,9-tetrahydropyrano(3,4-b)-indole-1-acetic acid, etodolac” (American Home Products Corporation, priority 1985, dated 1986).
# Read-outs that look alike come from different tables or passages of the source.
# Experiments:
# adjuvant edema = experiment: Preventive Adjuvant Edema test (antiinflammatory activity); assay type: in vivo; conditions: po
# [1] = system: Phenylquinone-induced writhing; experiment: Effects on Phenylquinone-Induced Writhing in Mice test (analgesic activity); assay type: in vivo; conditions: Mus musculus, po, read-out: antinociceptive ED50
Compound,ED50 (adjuvant edema),ED50 [1],"ED50 (adjuvant edema; Preventive Adjuvant-Edema, p.o., read-out: ED50)","ED50 ([1]; Phenylquinone-induced writhing in mice, p.o.)"
CC(=O)Oc1ccccc1C(=O)O [aspirin],184 mg/kg,54 mg/kg,–,–
"CCc1cccc2c3c([nH]c12)C(CC)(CC(=O)O)OCC3 (stereo not shown) [etodolac, 1,8-Diethyl-1,3,4,9-tetrahydropyrano[3,4-b]indole-1-acetic Acid]",–,–,4 mg/kg,154 mg/kg
